The text below walks through data of US4029688A, “Carbamic pesticidal compositions” (priority 1974, dated 1977).

Converted amounts (≈) assume the structure as drawn.

Data set [1] has as its system bean aphid (Aphis fabae Scop.). Nature of the data set: Bean Aphid Foliage Spray Test. The format is in vivo. More on the design: key to Aphid: C: no control; B: partial control; A: excellent control. The conditions noted are these: for Aphid: foliage spray, 500 parts per million, 24 hour; for LC50: Aphis fabae, foliar, Table II, side by side comparison, read-out: Aphids LD50. As for the experimental part:
(§1) Suspensions of the test compounds were prepared by dissolving one gram of compound in 50 milliliters of acetone in which had been dissolved 0.1 gram (10 percent of the weight of compound) of an alkylphenoxy polyethoxyethanol surfactant, as an emulsifying or dispersing agent. The resulting solution was mixed into 150 milliliters of water to give roughly 200 milliliters of a suspension containing the compound in finely divided form. The thus-prepared stock suspension contained 0.5 percent by weight of compound. The test concentrations in parts per million by weight employed in the tests described hereinbelow were obtained by appropriate dilutions of the stock suspension with water. The test procedures were as follows:
Adults and nymphal stages of the bean aphid (Aphis fabae Scop.) reared on potted dwarf nasturtium plants at 65°-70° F. and 50-70 percent relative humidity, constituted the test insects. For testing purposes, the number of aphids per pot was standardized to 100-150 by trimming plants containing excess aphids.
The test compounds were formulated by diluting the stock suspension with water to give a suspension containing 500 parts of test compound per million parts of final formulation.
The potted plants (one pot per compound tested) infested with 100-150 aphids, were placed on a revolving turntable and sprayed with 100-110 milliliters of test compound formulation by use of a DeVilbiss spray gun set at 40 psig. air pressure. This application, which lasted 25 seconds, was sufficient to wet the plants to run-off. As a control, 100-110 milliliters of a water-acetone-emulsifier solution containing no test compound were also sprayed on infested plants. After spraying, the pots were placed on their sides on a sheet of white standard mimeograph paper which had been previously ruled to facilitate counting. Temperature and humidity in the test room during the 24 hour holding period were 65°-70° F. and 50-70 percent, respectively. Aphids which fell onto the paper and were unable to remain standing after being uprighted were considered dead. Aphids remaining on the plants were observed closely for movement and those which were unable to move the length of the body upon stimulation by prodding were considered dead. Percent mortality was recorded for various concentration levels.
(§2) In the tests described above, the pesticidal activity of the compounds against aphid, mite, Southern Armyworm, Bean Beetle, house fly and nematode was rated as follows:
(§3) Comparison tests were conducted to assess the biological and chemical properties of certain representative species of the claimed invention in relation to their corresponding N-methyl carbamate compositions. The test procedures described above were employed in these experiments in order to determine the LD50 (number of parts per million of active ingredients required to achieve fifty percent mortality of the insects tested) for each of the compositions tested. In the case of the aphid and mite tests a side by side comparison was made of the N-methyl carbamate composition versus the corresponding perhalomethylsulfenyl derivative.

Data set [2] concerns two-spotted mite (Tetranychus urticae Koch). Nature of the data set: Mite Foliage Spray Test. The format is in vivo. Also noted: key to Mite (Spray): C: no control; B: partial control; A: excellent control. The settings on record: for Mite (Spray): foliage spray, 500 parts per million, six days; for LC50: Tetranychus urticae, foliar, Table II, side by side comparison, read-out: Mites Spray LD50. How it is done:
as §1
Adults and numphal stages of the two-spotted mite (Tetranychus urticae Koch), reared on Tendergreen bean plants at 80±5 percent relative humidity, were the test organisms. Infested leaves from a stock culture were placed on the primary leaves of two bean plants six to eight inches in height, growing in a 21/2 inch clay pot. 150 -200 Mites, a sufficient number for testing, transferred from the excised leaves to the fresh plants in a period of twenty-four hours. Following the twenty-four hour transfer period, the excised leaves were removed from the infested plants. The test compounds were formulated by diluting the stock suspension with water to give a suspension containing 500 parts of test compound per million parts of final formulation. The potted plants (one pot per compound) were placed on a revolving turntable and sprayed with 100-110 milliliters of test compound formulation by use of a DeVilbiss spray gun set at 40 psig. air pressure. This application, which lasted 25 seconds, was sufficient to wet the plants to run-off. As a control, 100-110 milliliters of a water solution containing acetone and emulsifier in the same concentrations as the test compound formulation, but containing no test compound, were also sprayed on infested plants. The sprayed plants were held at 80±5 percent relative humidity for six days, after which a mortality count of motile forms was made. Microscopic examination for motile forms was made on the leaves of the test plants. Any individual which was capable of locomotion upon prodding was considered living.
as §2, §3

For data set [3], the system named is root-knot nematode, Meloidogyne incognita var. acrita. Kind of data set: Nematocide Test. The format is in vivo. More on the design: key: C: no control; B: partial control; A: excellent control. The conditions noted are these: 3.33 m.g. per jar, galling of cucumber rated after approximately 3 weeks. As for the experimental part: The test organism used was the infective migratory larvae of the root-knot nematode, Meloidogyne incognita var. acrita, reared in the greenhouse on roots of cucumber plants. Infected plants were removed from the culture, and the roots are chopped very finely. A small amount of this inoculum was added to a pint jar containing approximately 180 cc. of soil. The jars were capped and incubated for one week at room temperature. During this period eggs of the nematode were hatched, and the larval forms migrated into the soil.
Ten ml. of the test formulation were added to each of the two jars for each dosage tested. Following the addition of chemical, the jars were capped, and the contents thoroughly mixed on a ball mill for 5 minutes.
The test compounds were formulated by a standard procedure of solution in acetone addition of an emulsifier, and dilution with water. Primary screening tests were conducted at 3.33 m.g. of the test compound per jar.
The jars were left capped at room temperature for a period of 48 hours, and the contents then transferred to 3 inch pots. Subsequently, the pots were seeded to cucumber as an indicator crop and placed in the greenhouse where they were cared for in the normal fashion for approximately 3 weeks.
The cucumber plants were then taken from the pots, the soil removed from the roots, and the amount of galling visually rated.
In the tests described above, the pesticidal activity of the compounds against aphid, mite, Southern Armyworm, Bean Beetle, house fly and nematode was rated as follows: […]

The next data set is described as follows: Chemical stability. The format is physicochemical. The settings on record: Table II.
The nature of data set [4]: Peroral toxicity to mammals (rat). The conditions noted are these: in vivo, po. How it is done: Certain of these compositions were also evaluated to determine their peroral toxicity to mammals. The animal selected for this experiment was the rat. The test results obtained are expressed in terms of the number of milligrams of composition per kilogram of weight of the animal required to achieve a mortality rate of 50 percent (LD50).

As for `CN(SC(F)(F)F)C(=O)ON=CC(C)(C)C#N` [drawing 12], the Aphid entry in data set [1] was “A”. In addition, the “Mite (Spray)” value in data set [2] is given as “A”. Moreover, the Nematode entry in data set [3] was “A”.
As to `CC(=NOC(=O)N(C)SC(Cl)(Cl)Cl)C(C)(C)[N+](=O)[O-]`, in data set [1], the Aphid result was “A”. The “Mite (Spray)” value in data set [2] is listed as “A”. The Nematode result in data set [3] is recorded as “A”.
Regarding `CN(SC(Cl)(Cl)Cl)C(=O)ON=CC(C)(C)C#N` [2-Methyl-2-cyanopropionaldehyde O-(N-methyl-N-trichloromethanesulfenylcarbamoyl)oxime], the Stability result in the data set “Chemical stability” is reported as “stable”. Moreover, in data set [1], the LC50 is 23 µg/mL (≈ 72.2 µM) and the Aphid result is on record as “A”. Moreover, in data set [4] (Table II), the LD50 was determined as 28.3 mg/kg. In addition, in data set [2], the LC50 worked out at 23 µg/mL (≈ 72.2 µM) and the “Mite (Spray)” value is reported as “A”. Further, the Nematode entry in data set [3] is recorded as “C”.
`CSCC(C)=NOC(=O)N(C)SC(Cl)(Cl)Cl`: the Aphid entry in data set [1] is on record as “B”. Further, in data set [2], the “Mite (Spray)” value is reported as “C”. For the same molecule, the Nematode entry in data set [3] was “C”.
In the case of `CN(SC(Cl)(Cl)Cl)C(=O)ON=CC(C)(C)S(C)(=O)=O` [2-Methyl-2-methylsulfonylpropionaldehyde O-(N-methyl-N-trichloromethanesulfenylcarbamoyl)oxime], in data set [1], the Aphid result is “A”. The “Mite (Spray)” value in data set [2] is listed as “A”. The Nematode result in data set [3] was “C”.
For `CC(=NOC(=O)N(C)SC(Cl)(Cl)Cl)C(C)(C)C#N`, the Aphid entry in data set [1] is on record as “A”. Also, the “Mite (Spray)” value in data set [2] is given as “A”. The Nematode entry in data set [3] is “C”.
As to `CN(SC(Cl)(Cl)Cl)C(=O)ON=CC(C)(C)[S+](C)[O-]` (stereo not shown) [2-Methyl-2-methylsulfinylpropionaldehyde O-(N-methyl-N-trichloromethanesulfenylcarbamoyl)oxime], the Aphid entry in data set [1] is reported as “A”. For the same molecule, the “Mite (Spray)” value in data set [2] is given as “A”. The Nematode entry in data set [3] is “A”.
`CSC(=NOC(=O)N(C)SC(Cl)(Cl)Cl)C(C)(SC)SC`: the Aphid entry in data set [1] was “A”. Moreover, in data set [2], the “Mite (Spray)” value is “A”. For the same molecule, the Nematode entry in data set [3] was “C”.
Turning to `CCOC(=O)CCSC(C)=NOC(=O)N(C)SC(Cl)(Cl)Cl`, the Aphid result in data set [1] was “B”. Further, the “Mite (Spray)” value in data set [2] was “C”. In data set [3], the Nematode entry is reported as “C”.
For `CC(CSC(C)(C)C)=NOC(=O)N(C)SC(Cl)(Cl)Cl`, in data set [1], the Aphid entry is recorded as “A”. Also, the “Mite (Spray)” value in data set [2] is “C”. Moreover, the Nematode result in data set [3] is “C”.
As to `CCOC(=O)C(C)SC(C)(C)C=NOC(=O)N(C)SC(Cl)(Cl)Cl` (stereo not shown), in data set [1], the Aphid result was “A”. For the same molecule, the “Mite (Spray)” value in data set [2] is “B”. The Nematode result in data set [3] is recorded as “C”.
Turning to `CC(=NOC(=O)N(C)SC(Cl)(Cl)Cl)SCCC#N` [1-(2-Cyanoethylthio)acetaldehyde O-(N-methyl-N-trichloromethanesulfenylcarbamoyl)oxime], the Stability result in “Chemical stability” is recorded as “stable”. In addition, in data set [1], the LC50 was 10 µg/mL (≈ 28.5 µM) and the Aphid result is listed as “A”. Further, the LD50 in data set [4] (peroral, Table I) was determined as 85.7 mg/kg. In addition, in data set [2], the LC50 was 22 µg/mL (≈ 62.7 µM) and the “Mite (Spray)” value is listed as “A”. In data set [3], the Nematode entry is given as “C”.
In the case of `COC(C)(C)C(Cl)=NOC(=O)N(C)SC(Cl)(Cl)Cl`, in data set [1], the Aphid result is on record as “A”. The “Mite (Spray)” value in data set [2] is reported as “A”. For the same molecule, in data set [3], the Nematode result was “A”.
Regarding `CC(C[N+](=O)[O-])=NOC(=O)N(C)SC(Cl)(Cl)Cl`, the Aphid result in data set [1] is “C”. Also, in data set [2], the “Mite (Spray)” value is given as “C”. Also, the Nematode entry in data set [3] is “C”.
With `CSCC(=NOC(=O)N(C)SC(Cl)(Cl)Cl)C(C)(C)C`, in data set [1], the Aphid result is given as “A”. Moreover, the “Mite (Spray)” value in data set [2] was “A”. Further, in data set [3], the Nematode entry is listed as “C”.
As for `CCOC(=O)CSC(C)=NOC(=O)N(C)SC(Cl)(Cl)Cl`, the Aphid result in data set [1] was “C”. The “Mite (Spray)” value in data set [2] is reported as “C”. In data set [3], the Nematode entry is given as “C”.
As for `CN(SC(Cl)(Cl)Cl)C(=O)ON=CC(C)(C)[N+](=O)[O-]` [2-Methyl-2-nitropropionaldehyde O-(N-methyl-N-trichloromethanesulfenylcarbamoyl)oxime], the Stability result in “Chemical stability” is recorded as “stable”. In data set [1], the LC50 turned out to be 6 µg/mL (≈ 17.7 µM) and the Aphid entry is given as “A”. The same molecule came in with an LD50 in data set [4] (Table II) of 14 mg/kg. This molecule showed an LD50 in data set [4] (peroral, Table I) of 13 mg/kg. In addition, in data set [2], the LC50 is 40 µg/mL (≈ 118 µM) and the “Mite (Spray)” value was “A”. The Nematode entry in data set [3] was “A”.
Take `CCOC(=O)CSC(C)(C)C=NOC(=O)N(C)SC(Cl)(Cl)Cl`: the Aphid entry in data set [1] is listed as “A”. Further, the “Mite (Spray)” value in data set [2] was “C”. Moreover, the Nematode entry in data set [3] was “C”.
In the case of `CC(=NOC(=O)N(C)SC(Cl)(Cl)Cl)C(C)(C)N=[N+]=[N-]`, the Aphid entry in data set [1] was “A”. For the same molecule, the “Mite (Spray)” value in data set [2] is “C”. Further, in data set [3], the Nematode result is on record as “C”.
